Test results: PubChem BioAssay AID1963960 (Molecular Pharmacology Branch, DTP, NCI, 2024)

System: MDA-MB-468 spheroids with HUVEC/MSC, viability
Experiment: Anticancer human tumor MDA-MB-468 cell line growth inhibition [PI3K];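 note: spheroids exposed to agents for seven days before readout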;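 for viability, T/C: 100% = DMSO vehicle control viability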
Details: for IC50: curve of first compound; for viability, T/C: stronger effect = lower value
In short: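 We assembled tumor spheroids that included a stromal compartment of HUVEC and MSCs, then exposed them to targeted agents alone and together with PI3K pathway inhibitors. Concentration series descended by half-log from clinically achievable Cmax levels. Viability served as the endpoint.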

[1] = second compound 0.0316 µM, first compound 0.000316 µM
[2] = second compound 0.0316 µM, first compound 0.001 µM
[3] = second compound 0.0316 µM, first compound 0.00316 µM
[4] = second compound 0.0316 µM, first compound 0.01 µM
[5] = second compound 0.0316 µM, first compound 0.0316 µM
[6] = second compound 0.0316 µM, first compound 0.1 µM
[7] = second compound 0.1 µM, first compound 0.000316 µM
[8] = second compound 0.1 µM, first compound 0.001 µM
[9] = second compound 0.1 µM, first compound 0.00316 µM
[10] = second compound 0.1 µM, first compound 0.01 µM
[11] = second compound 0.1 µM, first compound 0.0316 µM
[12] = second compound 0.1 µM, first compound 0.1 µM
[13] = second compound 0.316 µM, first compound 0.000316 µM
[14] = second compound 0.316 µM, first compound 0.001 µM
[15] = second compound 0.316 µM, first compound 0.00316 µM
[16] = second compound 0.316 µM, first compound 0.01 µM
[17] = second compound 0.316 µM, first compound 0.0316 µM
[18] = second compound 0.316 µM, first compound 0.1 µM
[19] = second compound 1 µM, first compound 0.000316 µM
[20] = second compound 1 µM, first compound 0.001 µM
[21] = second compound 1 µM, first compound 0.00316 µM
[22] = second compound 1 µM, first compound 0.01 µM
[23] = second compound 1 µM, first compound 0.0316 µM
[24] = second compound 1 µM, first compound 0.1 µM
[25] = second compound 3.16 µM, first compound 0.000316 µM
[26] = second compound 3.16 µM, first compound 0.001 µM
[27] = second compound 3.16 µM, first compound 0.00316 µM
[28] = second compound 3.16 µM, first compound 0.01 µM
[29] = second compound 3.16 µM, first compound 0.0316 µM
[30] = second compound 3.16 µM, first compound 0.1 µM
[31] = second compound 10 µM, first compound 0.000316 µM
[32] = second compound 10 µM, first compound 0.001 µM
[33] = second compound 10 µM, first compound 0.00316 µM
[34] = second compound 10 µM, first compound 0.01 µM
[35] = second compound 10 µM, first compound 0.0316 µM
[36] = second compound 10 µM, first compound 0.1 µM

`CC(=O)c1c(C)c2cnc(Nc3ccc(N4CCNCC4)cn3)nc2n(C2CCCC2)c1=O` + Cc1nc(NC(=O)N2CCCC2C(N)=O)sc1-c1ccnc(C(C)(C)C(F)(F)F)c1 gave an IC50 (second compound 0.0316 µM) greater than 100 nM, an IC50 (second compound 0.1 µM) greater than 100 nM and an IC50 (second compound 0.316 µM) greater than 100 nM. It also gave an IC50 (second compound 1 µM) greater than 100 nM, an IC50 (second compound 3.16 µM) greater than 100 nM and an IC50 (second compound 10 µM) of less than 0.316 nM. The viability, T/C [1] was 91.5%, the viability, T/C [2] was 92.1% and the viability, T/C [3] was 74.8%. The viability, T/C [4] was 93.4%, the viability, T/C [5] was 70.7% and the viability, T/C [6] was 70.2%. The viability, T/C [7] was 88.3%, the viability, T/C [8] was 92.2% and the viability, T/C [9] was 86.5%. It also gave a viability, T/C [10] of 97%, a viability, T/C [11] of 61.6% and a viability, T/C [12] of 67.2%. The viability, T/C [13] was 96.2%, the viability, T/C [14] was 95% and the viability, T/C [15] was 74.8%. For the same compound, the viability, T/C [16] was 91.9%, the viability, T/C [17] was 72.5% and the viability, T/C [18] was 67.6%. It also gave a viability, T/C [19] of 90.1%, a viability, T/C [20] of 75.7% and a viability, T/C [21] of 73.5%. The viability, T/C [22] was 75.2%, the viability, T/C [23] was 75.6% and the viability, T/C [24] was 76.8%. The viability, T/C [25] was 74.9%, the viability, T/C [26] was 60.4% and the viability, T/C [27] was 57.5%. The viability, T/C [28] was 68.8%, the viability, T/C [29] was 55.4% and the viability, T/C [30] was 55.2%. The viability, T/C [31] was 32.1%, the viability, T/C [32] was 24.2% and the viability, T/C [33] was 31.2%. For the same compound, the viability, T/C [34] was 28.6%, the viability, T/C [35] was 29.5% and the viability, T/C [36] was 27.6%.
For `CC(C)n1nc(-c2ccc3oc(N)nc3c2)c2c(N)ncnc21` + Cc1nc(NC(=O)N2CCCC2C(N)=O)sc1-c1ccnc(C(C)(C)C(F)(F)F)c1, the IC50 (second compound 0.0316 µM) was 50.6 nM, the IC50 (second compound 0.1 µM) was 33 nM and the IC50 (second compound 0.316 µM) was 24.5 nM. For the same compound, the IC50 (second compound 1 µM) was 19 nM, the IC50 (second compound 3.16 µM) was 14.7 nM and the IC50 (second compound 10 µM) was less than 0.316 nM. For the same compound, the viability, T/C [1] was 88.3%, the viability, T/C [2] was 82.8% and the viability, T/C [3] was 89.5%. It also gave a viability, T/C [4] of 101%, a viability, T/C [5] of 74.6% and a viability, T/C [6] of 14.4%. For the same compound, the viability, T/C [7] was 93.7%, the viability, T/C [8] was 79.6% and the viability, T/C [9] was 85.5%. The viability, T/C [10] was 95%, the viability, T/C [11] was 51.6% and the viability, T/C [12] was 10.8%. It also gave a viability, T/C [13] of 99.5%, a viability, T/C [14] of 94.3% and a viability, T/C [15] of 86.2%. For the same compound, the viability, T/C [16] was 82.5%, the viability, T/C [17] was 40.6% and the viability, T/C [18] was 10.7%. It also gave a viability, T/C [19] of 86.4%, a viability, T/C [20] of 75.6% and a viability, T/C [21] of 63.6%. The viability, T/C [22] was 66.2%, the viability, T/C [23] was 42.2% and the viability, T/C [24] was 11.8%. It also gave a viability, T/C [25] of 64.5%, a viability, T/C [26] of 58.4% and a viability, T/C [27] of 61.1%. For the same compound, the viability, T/C [28] was 59.2%, the viability, T/C [29] was 31.8% and the viability, T/C [30] was 9.62%. The viability, T/C [31] was 42.4%, the viability, T/C [32] was 21.8% and the viability, T/C [33] was 32.1%. The viability, T/C [34] was 20.7%, the viability, T/C [35] was 18.5% and the viability, T/C [36] was 5.69%.
Compound `CCCS(=O)(=O)Nc1ccc(F)c(C(=O)c2c[nH]c3ncc(-c4ccc(Cl)cc4)cc23)c1F` + Cc1nc(NC(=O)N2CCCC2C(N)=O)sc1-c1ccnc(C(C)(C)C(F)(F)F)c1 has an IC50 (second compound 0.0316 µM) of 5120 nM, an IC50 (second compound 0.1 µM) of 3970 nM and an IC50 (second compound 0.316 µM) of 3550 nM. For the same compound, the IC50 (second compound 1 µM) was 1440 nM, the IC50 (second compound 3.16 µM) was 1780 nM and the IC50 (second compound 10 µM) was less than 31.6 nM. The viability, T/C [5] was 89.5%, the viability, T/C [6] was 95.7% and the viability, T/C (second compound 0.0316 µM, first compound 0.316 µM) was 91.2%. For the same compound, the viability, T/C (second compound 0.0316 µM, first compound 1 µM) was 104%, the viability, T/C (second compound 0.0316 µM, first compound 3.16 µM) was 76.8% and the viability, T/C (second compound 0.0316 µM, first compound 10 µM) was 12.9%. For the same compound, the viability, T/C [11] was 92.8%, the viability, T/C [12] was 97.5% and the viability, T/C (second compound 0.1 µM, first compound 0.316 µM) was 93.6%. For the same compound, the viability, T/C (second compound 0.1 µM, first compound 1 µM) was 97%, the viability, T/C (second compound 0.1 µM, first compound 3.16 µM) was 59.5% and the viability, T/C (second compound 0.1 µM, first compound 10 µM) was 11.6%. For the same compound, the viability, T/C [17] was 103%, the viability, T/C [18] was 86.5% and the viability, T/C (second compound 0.316 µM, first compound 0.316 µM) was 80.5%. It also gave a viability, T/C (second compound 0.316 µM, first compound 1 µM) of 105%, a viability, T/C (second compound 0.316 µM, first compound 3.16 µM) of 54.6% and a viability, T/C (second compound 0.316 µM, first compound 10 µM) of 9.77%. It also gave a viability, T/C [23] of 113%, a viability, T/C [24] of 76.1% and a viability, T/C (second compound 1 µM, first compound 0.316 µM) of 63.9%. It also gave a viability, T/C (second compound 1 µM, first compound 1 µM) of 70.8%, a viability, T/C (second compound 1 µM, first compound 3.16 µM) of 49.3% and a viability, T/C (second compound 1 µM, first compound 10 µM) of 9.67%. For the same compound, the viability, T/C [29] was 72.3%, the viability, T/C [30] was 61% and the viability, T/C (second compound 3.16 µM, first compound 0.316 µM) was 67.9%. The viability, T/C (second compound 3.16 µM, first compound 1 µM) was 62.9%, the viability, T/C (second compound 3.16 µM, first compound 3.16 µM) was 36.9% and the viability, T/C (second compound 3.16 µM, first compound 10 µM) was 10%. For the same compound, the viability, T/C [35] was 43%, the viability, T/C [36] was 28.2% and the viability, T/C (second compound 10 µM, first compound 0.316 µM) was 36.4%. It also gave a viability, T/C (second compound 10 µM, first compound 1 µM) of 31.1%, a viability, T/C (second compound 10 µM, first compound 3.16 µM) of 26.2% and a viability, T/C (second compound 10 µM, first compound 10 µM) of 7.64%.
